Broadly, the IC50 is the concentration at which inhibition is half-maximal.

The subject of the first experiment is acyl-CoA:cholesterol acyltransferase (ACAT). Kind of experiment: Assay for ACAT activity with [1-14C]oleoyl-CoA and rat liver microsomal enzyme. The conditions noted are these: ACAT inhibition, compared with the positive control obovatol. For orientation: Liver microsomes are a subcellular fraction often used to study metabolism.
Description: The livers were removed from Male Sprague-Dawley rats (250-300 g), washed with microsome buffer A (0.25 M sucrose, 1 mM EDTA, 0.01 M Tris-HCl, pH 7.4), finely fractioned with scissors, and homogenized using a Teflon-glass homogenizer.
A reaction solution was prepared by mixing 10.0 μl of the sample, 4.0 μl of a rat liver microsomal enzyme of rat, 20.0 μl of an assay buffer [0.5 M KH2PO4, 10 mM DTT, pH 7.4], 15.0 μl of 40 mg/me BSA (essentially fatty acid free), 2.0 μl of 20 mg/me cholesterol, and 41.0 μl of distilled water, and subjected to pre-reaction at 37° C. for 20 min. To this enzymatic solution was added 8.0 μl of [1-^14C]oleoyl-CoA (0.05 μCi, final conc. 10 μM), and enzyme reaction was carried out at 37° C. for 25 min and terminated with 1 ml of isopropanol-heptane (4:1 v/v). Following the addition of 0.6 ml of heptane and 0.4 ml of five fold-diluted assay buffer, centrifugation was performed to separate the organic solvent. 100 μl of the supernatant was mixed well with 3 ml of Lipoluma scintillation cocktail and radioactivity was measured using a liquid scintillation counter.
Activity of inhibiting ACAT was quantified as radioactivity detected in the product of the reaction between the radio-labeled substrate and the enzyme in the presence of the assay samples, and percentage activity inhibition was calculated according to Equation 1 as follows.
CPM (T): CPM detected upon co-existence of sample and enzyme
CPM (C1): CPM upon existence of enzyme alone in the absence of sample
CPM (C2): CPM detected upon existence of sample alone in the absence of enzyme
CPM (B): CPM detected in the absence of both enzyme and sample.
Turning to `CC(C)CNC(=O)/C=C/C=C/CCCC/C=C/c1ccc2c(c1)OCO2` [Chemical Formula 2, pipercide], the “inhibitory activity relative to obovatol” value came out at 12 times.

Still in this experiment, the particulars now being: read-out: IC50 against ACAT; rat liver microsomal enzyme.
For the compound `CC(C)CNC(=O)/C=C/C=C/CC/C=C/c1ccc2c(c1)OCO2` [Chemical Formula 1, retrofractamide A], the IC50 amounted to 24.5 µM. As for `CC(C)CNC(=O)/C=C/C=C/CCCC/C=C/c1ccc2c(c1)OCO2` [Chemical Formula 2, pipercide], the IC50 stood at 3.7 µM. For `O=C(/C=C/CCCCCCc1ccc2c(c1)OCO2)N1CCCCC1` [Chemical Formula 3, piperrolein B], the IC50 came to 87.5 µM. On the same count and under the same terms, to `CC(C)CNC(=O)/C=C/CCCCCC/C=C/c1ccc2c(c1)OCO2` [Chemical Formula 4, piperchabamide D] belongs 11.5 µM; to `CCCCC/C=C/C=C/C(=O)NCC(C)C` [Chemical Formula 5, pellitorin], 40.4 µM. As for obovatol [reference compound], the IC50 is 44 µM.
